Holding throughout (test): Live cell target engagement (NanoBRET) in HEK293 cells
What all share (assay type): cell-based
For orientation: Bioluminescence resonance energy transfer reports proximity on the nanometre scale.

The target in test [1] is AKT2 (Homo sapiens (Human), UniProt P31751). The note with it: HEK293, 2 hours at 37° C.
Test [2] has as its target AKT1 WT (Homo sapiens (Human), UniProt P31749). The note with it: HEK293, 2 hours at 37° C.
The target in test [3] is AKT1 E17K (Homo sapiens (Human), UniProt P31749, E17K). Conditions: for IC50: HEK293, 2 hours at 37° C.
Sequence of AKT1 E17K (P31749 whole entry E17K): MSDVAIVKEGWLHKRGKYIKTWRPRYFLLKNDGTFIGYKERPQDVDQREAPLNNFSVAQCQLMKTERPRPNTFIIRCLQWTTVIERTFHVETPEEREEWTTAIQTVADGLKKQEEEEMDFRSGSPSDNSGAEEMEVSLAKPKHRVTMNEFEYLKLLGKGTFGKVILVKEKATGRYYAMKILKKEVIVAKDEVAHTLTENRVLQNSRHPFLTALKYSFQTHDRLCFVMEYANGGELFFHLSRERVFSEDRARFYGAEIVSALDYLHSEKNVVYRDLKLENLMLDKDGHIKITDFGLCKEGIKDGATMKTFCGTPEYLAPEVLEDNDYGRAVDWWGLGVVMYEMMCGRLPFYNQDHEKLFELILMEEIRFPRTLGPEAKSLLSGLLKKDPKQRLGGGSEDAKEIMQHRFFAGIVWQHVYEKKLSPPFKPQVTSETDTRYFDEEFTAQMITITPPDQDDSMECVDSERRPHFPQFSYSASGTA

Sequence of AKT1 WT (P31749 whole entry): as the sequence (P31749 whole entry E17K) above, with K17E counted along it
Sequence of AKT2 (P31751 whole entry): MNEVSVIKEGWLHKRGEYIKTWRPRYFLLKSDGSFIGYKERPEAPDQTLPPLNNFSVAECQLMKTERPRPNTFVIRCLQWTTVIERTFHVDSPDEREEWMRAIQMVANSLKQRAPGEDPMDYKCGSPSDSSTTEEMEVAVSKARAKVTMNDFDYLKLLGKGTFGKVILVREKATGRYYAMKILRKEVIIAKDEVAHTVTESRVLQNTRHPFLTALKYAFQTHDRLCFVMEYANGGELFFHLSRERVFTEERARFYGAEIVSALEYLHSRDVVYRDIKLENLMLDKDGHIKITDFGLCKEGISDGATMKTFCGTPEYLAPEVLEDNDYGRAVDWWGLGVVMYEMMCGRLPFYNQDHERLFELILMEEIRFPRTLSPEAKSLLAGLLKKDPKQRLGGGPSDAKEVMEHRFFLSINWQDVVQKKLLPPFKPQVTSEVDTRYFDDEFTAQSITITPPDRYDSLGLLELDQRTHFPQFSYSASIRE

For `CC(NCCc1ccc(C=O)c(O)c1)c1ccc(-n2c(-c3cccnc3N)nc3ccc(-c4ccccc4)nc32)cc1` (centres unmarked) [Compound 127, 4v-(2-((1-(4-(2-(2-aminopyridin-3-yl)-5-phenyl-3H-imidazo[4,5-b]pyridin-3-yl)phenyl)ethyl)amino)ethyl)-2-hydroxybenzaldehyde], the IC50 in test [1] fell in the range of 100 to 500 nM. Moreover, the IC50 in test [2] was under 100 nM. In addition, in test [3], the “AKT1 E17K IC50: Selectivity vs AKT1 WT” value stood at 2.6, the “AKT1 E17K IC50: Selectivity vs AKT2” value worked out at 7.7 and the IC50 was under 100 nM.

The compound `Nc1ncccc1-c1nc2ccc(-c3ccccc3)nc2n1-c1ccc(CCNCCc2ccc(C=O)c(O)c2)cc1` [Compound 36, 4-(2-((4-(2-(2-aminopyridin-3-yl)-5-phenyl-3H-imidazo[4,5-b]pyridin-3-yl)phenethyl)amino)ethyl)-2-hydroxybenzaldehyde] showed an IC50 in test [1] of 100 to 500 nM. For the same compound, in test [2], the concentration for half-maximal inhibition (IC50) is under 100 nM. Moreover, in test [3], the “AKT1 E17K IC50: Selectivity vs AKT1 WT” value amounted to 2, the “AKT1 E17K IC50: Selectivity vs AKT2” value stood at 9.2 and the 50% inhibitory concentration (IC50) was under 100 nM.

In test [1], `Cc1ccc2nc(-c3cccnc3N)n(-c3ccc(CNC(=O)Cc4ccc(C=O)c(O)c4)cc3)c2n1` [Compound 24, N-({4-[2-(2-aminopyridin-3-yl)-5-methylimidazo[4,5-b]pyridin-3-yl]phenyl}methyl)-2-(4-formyl-3-hydroxyphenyl)acetamide] had a half-inhibitory concentration (IC50) of over 500 nM. Further, the IC50 in test [2] is under 100 nM. In test [3], the “AKT1 E17K IC50: Selectivity vs AKT1 WT” value stood at 4.3, the “AKT1 E17K IC50: Selectivity vs AKT2” value was found to be 210 and the 50% inhibitory concentration (IC50) is under 100 nM.

Turning to `Nc1ncccc1-c1nc2ccc(-c3ccccc3)nc2n1-c1ccc(C(=O)NCCc2ccc(C=O)c(O)c2)cn1` [Compound 112, 6-[2-(2-aminopyridin-3-yl)-5-phenylimidazo[4,5-b]pyridin-3-yl]-N-[2-(4-formyl-3-hydroxyphenyl)ethyl]pyridine-3-carboxamide], the concentration for half-maximal inhibition (IC50) in test [1], in test [2] and in test [3] was over 500 nM each time. Besides, in test [3], the “AKT1 E17K IC50: Selectivity vs AKT1 WT” value is 1. For the same compound, the “AKT1 E17K IC50: Selectivity vs AKT2” value in test [3] was 1.

The compound `CN(C(=O)CCc1ccc(C=O)c(O)c1)c1ccc(-n2c(-c3cccnc3N)nc3ccc(-c4ccccc4)nc32)cc1` [Compound 100, N-(4-(2-(2-aminopyridin-3-yl)-5-phenyl-3H-imidazo[4,5-b]pyridin-3-yl)phenyl)-3-(4-formyl-3-hydroxyphenyl)-N-methylpropanamide] gave a half-inhibitory concentration (IC50) in test [1] of over 500 nM. This compound also displayed an IC50 in test [2] of 100 to 500 nM. Besides, in test [3], the “AKT1 E17K IC50: Selectivity vs AKT1 WT” value is listed as 1.9, the “AKT1 E17K IC50: Selectivity vs AKT2” value is listed as 13 and the IC50 lay in the range of 100 to 500 nM.

For the compound `Nc1ncccc1-c1nc2ccc(-c3ccccc3)nc2n1-c1ccc(CNC(=O)C2(c3ccc(C=O)c(O)c3F)CC2)cc1` [Compound 59, N-(4-(2-(2-aminopyridin-3-yl)-5-phenyl-3H-imidazo[4,5-b]pyridin-3-yl)benzyl)-1-(2-fluoro-4-formyl-3-hydroxyphenyl)cyclopropane-1-carboxamide], the IC50 in test [1] is over 500 nM; in test [2] it was over 500 nM; in test [3], 100 to 500 nM. For the same compound, in test [3], the “AKT1 E17K IC50: Selectivity vs AKT1 WT” value worked out at 5.7. Moreover, in test [3], the “AKT1 E17K IC50: Selectivity vs AKT2” value is reported as 39.

The compound `Nc1ncccc1-c1nc2ccc(-c3ccnc(N4CCOCC4)c3)nc2n1-c1ccc(CNC(=O)Cc2ccc(C=O)c(O)c2)cc1` [Compound 34, N-({4-[2-(2-aminopyridin-3-yl)-5-[2-(morpholin-4-yl)pyridin-4-yl]imidazo[4,5-b]pyridin-3-yl]phenyl}methyl)-2-(4-formyl-3-hydroxyphenyl)acetamide] gave an IC50 in test [1] of over 500 nM. In test [2], this compound registered a 50% inhibitory concentration (IC50) of 100 to 500 nM. In test [3], the “AKT1 E17K IC50: Selectivity vs AKT1 WT” value is given as 10, the “AKT1 E17K IC50: Selectivity vs AKT2” value came to 40 and the half-maximal inhibitory concentration (IC50) was under 100 nM.

Consider `Nc1ncccc1-c1nc2ccc(C3CC3C(=O)N3CCOCC3)nc2n1-c1ccc(CNC(=O)Cc2ccc(C=O)c(O)c2)cc1` (centres unmarked) [Example 6, N-({4-[2-(2-aminopyridin-3-yl)-5-[2-(morpholine-4-carbonyl)cyclopropyl]imidazo[4,5-b]pyridin-3-yl]phenyl}methyl)-2-(4-formyl-3-hydroxyphenyl)acetamide], for which the IC50 in test [1] was over 500 nM. In test [2], this compound gave a half-inhibitory concentration (IC50) of over 500 nM. Further, in test [3], the “AKT1 E17K IC50: Selectivity vs AKT1 WT” value is 8.7, the “AKT1 E17K IC50: Selectivity vs AKT2” value is 18 and the IC50 was in the range of 100 to 500 nM.

Consider `Nc1ncccc1-c1nc2cccnc2n1-c1ccc(CNCCc2ccc(C=O)c(C(F)F)c2)cc1` [Compound 80, 4-{2-[({4-[2-(2-aminopyridin-3-yl)imidazo[4,5-b]pyridin-3-yl]phenyl}methyl)amino]ethyl}-2-(difluoromethyl)benzaldehyde], for which the IC50 in test [1] was over 500 nM; in test [2] it was 100 to 500 nM; in test [3] it was 100 to 500 nM. In addition, the “AKT1 E17K IC50: Selectivity vs AKT1 WT” value in test [3] is listed as 0.47. Also, in test [3], the “AKT1 E17K IC50: Selectivity vs AKT2” value was 2.5.

In test [1], `Nc1ncccc1-c1nc2ccc(-c3ccccc3)nc2n1-c1ccc(CNc2cc(-c3ccc(O)c(C=O)c3)ccn2)cc1` [Compound 81, 5-(2-((4-(2-(2-aminopyridin-3-yl)-5-phenyl-3H-imidazo[4,5-b]pyridin-3-yl)benzyl)amino)pyridin-4-yl)-2-hydroxybenzaldehyde] had an IC50 of 100 to 500 nM. Also, the IC50 in test [2] lay in the range of 100 to 500 nM. Besides, in test [3], the “AKT1 E17K IC50: Selectivity vs AKT1 WT” value came out at 0.51, the “AKT1 E17K IC50: Selectivity vs AKT2” value was 1.7 and the IC50 was 100 to 500 nM.

In turn, `CN(CCc1ccc(C=O)c(O)c1)C(=O)c1ccc(-n2c(-c3cccnc3N)nc3ccc(-c4ccccc4)nc32)cc1` [Compound 57, 4-[2-(2-aminopyridin-3-yl)-5-phenylimidazo[4,5-b]pyridin-3-yl]-N-[2-(4-formyl-3-hydroxyphenyl)ethyl]-N-methylbenzamide] gave a 50% inhibitory concentration (IC50) in test [1] of over 500 nM. The same compound gave an IC50 in test [2] of 100 to 500 nM. Further, in test [3], the “AKT1 E17K IC50: Selectivity vs AKT1 WT” value was found to be 2.7, the “AKT1 E17K IC50: Selectivity vs AKT2” value came to 13 and the IC50 is 100 to 500 nM.

With `COc1c(CCNCc2ccc(-n3c(-c4cccnc4N)nc4ccc(-c5ccccc5)nc43)cc2)ccc(C=O)c1O` [Compound 76, 4-{2-[({4-[2-(2-aminopyridin-3-yl)-5-phenylimidazo[4,5-b]pyridin-3-yl]phenyl}methyl)amino]ethyl}-2-hydroxy-3-methoxybenzaldehyde], the IC50 in test [1], in test [2] and in test [3] was 100 to 500 nM throughout. Moreover, the “AKT1 E17K IC50: Selectivity vs AKT1 WT” value in test [3] stood at 1.6. In test [3], the “AKT1 E17K IC50: Selectivity vs AKT2” value came out at 4.7.

In turn, `Nc1ncccc1-c1nc2ccc(-c3ccccc3)nc2n1-c1ccc(CNC(=O)Cc2ccc(C=O)c(O)c2Cl)cc1` [Compound 63, N-({4-[2-(2-aminopyridin-3-yl)-5-phenylimidazo[4,5-b]pyridin-3-yl]phenyl}methyl)-2-(2-chloro-4-formyl-3-hydroxyphenyl)acetamide] registered a half-maximal inhibitory concentration (IC50) in test [1] of 100 to 500 nM. Moreover, in test [2], the IC50 was under 100 nM. In test [3], the “AKT1 E17K IC50: Selectivity vs AKT1 WT” value was 1.2, the “AKT1 E17K IC50: Selectivity vs AKT2” value worked out at 8.3 and the IC50 is under 100 nM.

A word on the IC50: it is the concentration needed to halve the response being measured.

These data come from US20250115600A1, “COVALENT MODIFIERS OF AKT1 AND USES THEREOF” (Terremoto Biosciences, Inc., priority 2022, published 2025).
